The source of these data is patent US9051310B2, “Nicotinamide derivative or salt thereof” (FUJIFILM Corporation, priority 2011, dated 2015).

Experiment [1] has as its system THP-1 cells (TNFα secretion on human IgG-coated plate). In words: TNFα generation assay. The class given is cell-based. The conditions noted are these: IFN-γ differentiated THP-1 cells, 7 hours, AlphaLISA, read-out: IC50 of TNFα generation inhibitory activity. An outline of the steps: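 Secreted TNFα was measured by AlphaLISA after 7 h of culture on human IgG-coated wells (coating at 10 μg/ml), with 5×10^4 cells/well. Before plating, the cells had been treated with compound for 30 min at room temperature. The cells were macrophage-like THP-1, produced by a 2-day exposure to 10 ng/ml IFN-γ.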

The test system of experiment [2] is mouse thrombocytopenia induced by anti-mouse CD41 antibody. Nature of the experiment: Mouse thrombocytopenia model. The class given is in vivo. As to conditions: Platelet, female BALB/c mice, 50 mg/kg 1 hour before anti-CD41 antibody, blood sampling 4 hours after antibody, read-out: improvement of platelet count compared with the control group. The protocol:
Test compounds were tested to examine effects upon mouse thrombocytopenia. Each test compound (50 mg/kg) was administered to 5- to 7-week-old female BALB/c mice (Charles River Laboratories Japan, Inc.). One hour thereafter, an anti-mouse CD41 ([…]) antibody (SCB) (1 μg (200 μl)) was intravenously administered to each mouse so as to induce thrombocytopenia. Four hours after administration of the anti-CD41 antibody, blood sampling from the postcava was performed. The platelet count was determined using an automated hematology analyzer.

Experiment [3] deals with T1, glutathione S-transferase (GST)-linked full-length human Syk protein (Homo sapiens, UniProt P43405).
T1 construct: glutathione S-transferase (GST)-linked full-length human Syk protein; purchased Carna Biosciences; host or cells: Baculovirus expression system
In words: Syk enzyme assay. As to conditions: 0.83 nM Syk, time-resolved fluorescence; read-out: IC50 of Syk-inhibitory activity. The format is biochemical. A digest of the protocol: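 Phosphotyrosine on a biotin-peptide substrate (0.5 μM) was read by time-resolved fluorescence at 615 and 665 nm with Eu-anti-pTyr antibody and APC-streptavidin after 1 h EDTA stop.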

In experiment [4] the test system is THP-1 cells (phagocytosis of opsonized Escherichia coli). Nature of the experiment: Antibody-dependent phagocytosis assay. As to conditions: Homo sapiens; IFNγ differentiated THP-1 cells, opsonized pHrodo Escherichia coli, 3 hours; read-out: IC50 upon phagocytosis inhibition. The format is cell-based. A digest of the protocol: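 Read-out was imaging-based quantification of pHrodo-labeled, antibody-opsonized E. coli taken up by Calcein AM-stained viable cells after 3 h at 37° C. The cells were IFNγ-differentiated THP-1 macrophages (10 ng/ml, 2 days), preincubated with compound for 30 min at room temperature.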

Structures are written as SMILES. pIC50: −log10 of the molar value.

Consider `COc1ccc(Nc2nc(N[C@H](C3CC3)[C@H](C)N)c(F)cc2C(N)=O)cc1OC` [Example 2-48, 6-(((1R,2S)-2-amino-1-cyclopropylpropyl)amino)-2-((3,4-dimethoxyphenyl)amino)-5-fluoronicotinamide], for which the figures for the pIC50 in experiment [1], in experiment [3] and in experiment [4] were 6.89 to 7.19, above 8.00 and above 6.00, respectively. For the same compound, the change in vivo at 50 mg/kg in experiment [2] was at least 50%.
As to `C[C@H](N)[C@H](Nc1nc(Nc2cc(F)c3c(c2)c(N(C)C)nn3C)c(C(N)=O)cc1F)C1CC1` [Example 2-188, 6-(((1R,2S)-2-amino-1-cyclopropylpropyl)amino)-2-((3-(dimethylamino)-7-fluoro-1-methyl-1H-indazol-5-yl)amino)-5-fluoronicotinamide], the pIC50 in experiment [1] is above 7.19; in experiment [3], above 8.00; in experiment [4], above 6.00. Moreover, the change in vivo at 50 mg/kg in experiment [2] was at least 50%.
Take `CCn1ncc2c(Nc3nc(N[C@@H]4CCOC[C@@H]4N)c(F)cc3C(N)=O)cccc21` [Example 2-330, 6-(((3R,4R)-3-aminotetrahydro-2H-pyran-4-yl)-amino)-2-((1-ethyl-1H-indazol-4-yl)amino)-5-fluoronicotinamide]: the pIC50 was 6.89 to 7.19 in experiment [1], above 8.00 in experiment [3] and above 6.00 in experiment [4]. Moreover, in experiment [2], the change in vivo at 50 mg/kg was at least 50%.
`Cc1ncc(Nc2nc(N[C@@H]3CCCC[C@@H]3N)c(F)cc2C(N)=O)cc1F` [Example 2-142, 6-(((1R,2S)-2-aminocyclohexyl)amino)-5-fluoro-2-((5-fluoro-6-methylpyridin-3-yl)amino)nicotinamide]: the pIC50 was 6.89 to 7.19 in experiment [1], 7.30 to 8.00 in experiment [3] and above 6.00 in experiment [4]. Also, in experiment [2], the change in vivo at 50 mg/kg is at least 50%.
Turning to `C[C@H](N)[C@@H](CC1CC1)Nc1nc(Nc2ccc3c(c2)c(N(C)C)nn3C)c(C(N)=O)cc1F` [Example 2-2, 6-(((2R,3S)-3-amino-1-cyclopropylbutan-2-yl)amino)-2-((3-(dimethylamino)-1-methyl-1H-indazol-5-yl)amino)-5-fluoronicotinamide], in experiment [2], the change in vivo at 50 mg/kg was at least 50%. Further, the pIC50 in experiment [3] was above 8.00; in experiment [4], above 6.00.
In the case of `COC[C@@H](Nc1nc(Nc2cc(F)c3c(c2)c(N(C)C)nn3C)c(C(N)=O)cc1F)[C@H](C)N` [Example 2-193, 6-(((2S,3S)-3-amino-1-methoxybutan-2-yl)amino)-2-((3-(dimethylamino)-7-fluoro-1-methyl-1H-indazol-5-yl)amino)-5-fluoronicotinamide], the pIC50 is 6.70 to 6.89 in experiment [1], 7.30 to 8.00 in experiment [3] and 5.52 to 6.00 in experiment [4]. Further, the change in vivo at 50 mg/kg in experiment [2] was at least 50%.
Consider `Cn1nc(OC(F)F)c2cc(Nc3nc(N[C@@H]4CCOC[C@@H]4N)c(F)cc3C(N)=O)ccc21` [Example 2-348, 6-(((3R,4R)-3-aminotetrahydro-2H-pyran-4-yl)amino)-2-((3-(difluoromethoxy)-1-methyl-1H-indazol-5-yl)amino)-5-fluoronicotinamide], for which the values for the pIC50 in experiment [1], in experiment [3] and in experiment [4] were 6.70 to 6.89, above 8.00 and above 6.00, respectively. The change in vivo at 50 mg/kg in experiment [2] was at least 50%.
For `C[C@H](N)[C@H](Nc1nc(Nc2cc(F)c3c(c2)c(N(C)C)nn3C)c(C(N)=O)cc1F)C1CCC1` [Example 2-192, 6-(((1R,2S)-2-amino-1-cyclobutylpropyl)amino)-2-((3-(dimethylamino)-7-fluoro-1-methyl-1H-indazol-5-yl)amino)-5-fluoronicotinamide], the change in vivo at 50 mg/kg in experiment [2] is at least 50%. The figures for the pIC50 in experiment [3] and in experiment [4] were above 8.00 and 5.52 to 6.00, respectively.
In the case of `COCCn1nc(OC(F)F)c2cc(Nc3nc(N[C@@H]4CCCC[C@@H]4N)c(F)cc3C(N)=O)ccc21` [Example 2-174, 6-(((1R,2S)-2-aminocyclohexyl)amino)-2-((3-(difluoromethoxy)-1-(2-methoxyethyl)-1H-indazol-5-yl)amino)-5-fluoronicotinamide], the pIC50 in experiment [1] was 6.70 to 6.89; in experiment [3], above 8.00; in experiment [4], above 6.00. Further, the change in vivo at 50 mg/kg in experiment [2] was at least 50%.
The like results for `CC[C@H](N)[C@@H](C)Nc1nc(Nc2ccc3c(c2)c(N(C)C)nn3C)c(C(N)=O)cc1F` [Example 2-91, 6-(((2R,3S)-3-aminopentan-2-yl)amino)-2-((3-(dimethylamino)-1-methyl-1H-indazol-5-yl)amino)-5-fluoronicotinamide] were, in that order, 6.70 to 6.89, 7.30 to 8.00, 5.52 to 6.00 and at least 50%.
The like results for `CN(C)c1nn(C)c2c(F)cc(Nc3nc(N[C@@H]4CCOC[C@@H]4N)c(F)cc3C(N)=O)cc12` [Example 2-213, 6-(((3R,4R)-3-aminotetrahydro-2H-pyran-4-yl)amino)-2-((3-(dimethylamino)-7-fluoro-1-methyl-1H-indazol-5-yl)amino)-5-fluoronicotinamide] were, in that order, 6.89 to 7.19, above 8.00, above 6.00 and at least 50%.
In the case of `COCCn1nc(OC)c2cc(Nc3nc(N[C@@H]4CCCC[C@@H]4N)c(F)cc3C(N)=O)ccc21` [Example 2-123, 6-(((1R,2S)-2-aminocyclohexyl)amino)-5-fluoro-2-((3-methoxy-1-(2-methoxyethyl)-1H-indazol-5-yl)amino)nicotinamide], the pIC50 in experiment [1] was 6.89 to 7.19; in experiment [3], above 8.00; in experiment [4], above 6.00. Further, in experiment [2], the change in vivo at 50 mg/kg was at least 50%.
In the case of `COCCn1nc(OC(F)F)c2cc(Nc3nc(N[C@@H]4CCOC[C@@H]4N)c(F)cc3C(N)=O)ccc21` [Example 2-352, 6-(((3R,4R)-3-aminotetrahydro-2H-pyran-4-yl)amino)-2-((3-(difluoromethoxy)-1-(2-methoxyethyl)-1H-indazol-5-yl)amino)-5-fluoronicotinamide], the change in vivo at 50 mg/kg in experiment [2] was at least 50%. Moreover, the pIC50 in experiment [3] is above 8.00; in experiment [4], above 6.00.
On to `COCCn1ncc2cc(Nc3nc(N[C@H](C4CC4)[C@H](C)N)c(F)cc3C(N)=O)ccc21` [Example 2-265, 6-(((1R,2S)-2-amino-1-cyclopropylpropyl)amino)-5-fluoro-2-((1-(2-methoxyethyl)-1H-indazol-5-yl)amino)nicotinamide], for which the pIC50 is 6.89 to 7.19 in experiment [1], above 8.00 in experiment [3] and above 6.00 in experiment [4]. In addition, in experiment [2], the change in vivo at 50 mg/kg was at least 50%.
Take `C[C@H](N)[C@H](Nc1nc(Nc2cnc(N3CCOCC3)c(F)c2)c(C(N)=O)cc1F)C1CCC1` [Example 2-77, 6-(((1R,2S)-2-amino-1-cyclobutylpropyl)amino)-5-fluoro-2-((5-fluoro-6-morpholinopyridin-3-yl)amino)nicotinamide]: the pIC50 was 6.70 to 6.89 in experiment [1], 7.30 to 8.00 in experiment [3] and above 6.00 in experiment [4]. Moreover, in experiment [2], the change in vivo at 50 mg/kg is at least 50%.
Take `Cc1cc(Nc2nc(N[C@H](CC(C)C)[C@H](C)N)c(F)cc2C(N)=O)cnc1C` [Example 2-18, 6-(((2S,3R)-2-amino-5-methylhexan-3-yl)amino)-2-((5,6-dimethylpyridin-3-yl)amino)-5-fluoronicotinamide]: the pIC50 is 6.89 to 7.19 in experiment [1], above 8.00 in experiment [3] and above 6.00 in experiment [4]. Besides, the change in vivo at 50 mg/kg in experiment [2] was at least 50%.
With `COC[C@@H](Nc1nc(Nc2cc(OC)cc(OC)c2)c(C(N)=O)cc1F)[C@H](C)N` [Example 2-267, 6-(((2S,3S)-3-amino-1-methoxybutan-2-yl)amino)-2-((3,5-dimethoxyphenyl)amino)-5-fluoronicotinamide], the pIC50 is 6.89 to 7.19 in experiment [1], above 8.00 in experiment [3] and 5.52 to 6.00 in experiment [4]. For the same compound, the change in vivo at 50 mg/kg in experiment [2] was at least 50%.
For `COc1cc(Nc2nc(N[C@H](C3CCC3)[C@H](C)N)c(F)cc2C(N)=O)cc(OC)c1` [Example 2-28] the same measures were 6.89 to 7.19, above 8.00, above 6.00 and at least 50%.
As to `COCCn1ncc2c(Nc3nc(N[C@@H]4CCOC[C@@H]4N)c(F)cc3C(N)=O)cccc21` [Example 2-331, 6-(((3R,4R)-3-aminotetrahydro-2H-pyran-4-yl)amino)-5-fluoro-2-((1-(2-methoxyethyl)-1H-indazol-4-yl)amino)nicotinamide], the change in vivo at 50 mg/kg in experiment [2] is at least 50%. The pIC50 in experiment [3] is above 8.00; in experiment [4] it was 5.52 to 6.00.
